{
  "source": "PubChem BioAssay (NCI)",
  "note": "Values joined by “and” are separate entries in the source; they are usually repeats but may differ in a detail not shown here. Equal values may be shown once.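 Five concentrations, 48 hours, 96-well plates. Abbreviation: GI50, concentration required for 50% inhibition of growth. TGI is the concentration that stops growth completely.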",
  "data": [
    {"system": "SK-MEL-2 melanoma", "assay": "DTP human tumour cell line panel, 48 h", "values": [
      {"smiles": "COc1ccc2c(c1)nnn1c3ncccc3c(N=O)c21", "GI50": "2.18 µM and 4.29 µM", "TGI": "10.3 µM and > 100 µM"}
    ]},
    {"system": "SK-MEL-28 melanoma", "assay": "DTP human tumour cell line panel, 48 h", "values": [
      {"smiles": "CCC1CN2C(=N1)c1ccccc1-c1cc(Cl)ccc12", "note": "(stereo unspecified)", "GI50": "4.97 µM", "TGI": "18.4 µM"},
      {"smiles": "CC1(N)CCN(c2cccnc2NC(=O)c2nc(-c3ncccc3C(F)(F)F)cnc2N)CC1", "GI50": "25 µM", "TGI": "85.6 µM"},
      {"smiles": "CC[C@]1(Cc2ccc(OC)c(OC)c2)C=[N+]([O-])O[C@H](OC2CCCC2(c2ccccc2)c2ccccc2)[C@@H]1OC(C)=O", "note": "(stereo partly specified)", "TGI": "4.81 µM"},
      {"smiles": "COc1ccc2c(c1)nnn1c3ncccc3c(N=O)c21", "GI50": "3.48 µM and 11.4 µM", "TGI": "13.6 µM and 74.4 µM"}
    ]},
    {"system": "SK-MEL-5 melanoma", "assay": "DTP human tumour cell line panel, 48 h", "values": [
      {"smiles": "CCC1CN2C(=N1)c1ccccc1-c1cc(Cl)ccc12", "note": "(stereo unspecified)", "GI50": "2.03 µM", "TGI": "4.69 µM"},
      {"smiles": "CC1(N)CCN(c2cccnc2NC(=O)c2nc(-c3ncccc3C(F)(F)F)cnc2N)CC1", "GI50": "18.3 µM", "TGI": "33 µM"},
      {"smiles": "CC[C@]1(Cc2ccc(OC)c(OC)c2)C=[N+]([O-])O[C@H](OC2CCCC2(c2ccccc2)c2ccccc2)[C@@H]1OC(C)=O", "note": "(stereo partly specified)", "TGI": "11.9 µM"},
      {"smiles": "COc1ccc2c(c1)nnn1c3ncccc3c(N=O)c21", "GI50": "5.01 µM and 11.7 µM", "TGI": "11.1 µM and 24.1 µM"}
    ]},
    {"system": "SK-OV-3 ovarian", "assay": "DTP human tumour cell line panel, 48 h", "values": [
      {"smiles": "CCC1CN2C(=N1)c1ccccc1-c1cc(Cl)ccc12", "note": "(stereo unspecified)", "GI50": "4.27 µM", "TGI": "24.6 µM"},
      {"smiles": "CC1(N)CCN(c2cccnc2NC(=O)c2nc(-c3ncccc3C(F)(F)F)cnc2N)CC1", "GI50": "7.86 µM", "TGI": "73.8 µM"},
      {"smiles": "CC[C@]1(Cc2ccc(OC)c(OC)c2)C=[N+]([O-])O[C@H](OC2CCCC2(c2ccccc2)c2ccccc2)[C@@H]1OC(C)=O", "note": "(stereo partly specified)", "TGI": "50.2 µM"},
      {"smiles": "COc1ccc2c(c1)nnn1c3ncccc3c(N=O)c21", "GI50": "1.68 µM and 2.94 µM", "TGI": "11.8 µM and 19.6 µM"}
    ]},
    {"system": "SN12C renal", "assay": "DTP human tumour cell line panel, 48 h", "values": [
      {"smiles": "CCC1CN2C(=N1)c1ccccc1-c1cc(Cl)ccc12", "note": "(stereo unspecified)", "GI50": "2.97 µM", "TGI": "17.4 µM"},
      {"smiles": "CC1(N)CCN(c2cccnc2NC(=O)c2nc(-c3ncccc3C(F)(F)F)cnc2N)CC1", "GI50": "16.2 µM", "TGI": "> 100 µM"},
      {"smiles": "CC[C@]1(Cc2ccc(OC)c(OC)c2)C=[N+]([O-])O[C@H](OC2CCCC2(c2ccccc2)c2ccccc2)[C@@H]1OC(C)=O", "note": "(stereo partly specified)", "TGI": "> 39.3 µM"},
      {"smiles": "COc1ccc2c(c1)nnn1c3ncccc3c(N=O)c21", "GI50": "1.4 µM and 2.06 µM", "TGI": "8.1 µM and 9.82 µM"}
    ]},
    {"system": "SNB-19 CNS", "assay": "DTP human tumour cell line panel, 48 h", "values": [
      {"smiles": "CCC1CN2C(=N1)c1ccccc1-c1cc(Cl)ccc12", "note": "(stereo unspecified)", "GI50": "5.85 µM", "TGI": "30.5 µM"},
      {"smiles": "CC1(N)CCN(c2cccnc2NC(=O)c2nc(-c3ncccc3C(F)(F)F)cnc2N)CC1", "GI50": "50 µM", "TGI": "> 100 µM"},
      {"smiles": "CC[C@]1(Cc2ccc(OC)c(OC)c2)C=[N+]([O-])O[C@H](OC2CCCC2(c2ccccc2)c2ccccc2)[C@@H]1OC(C)=O", "note": "(stereo partly specified)", "TGI": "18.5 µM"},
      {"smiles": "COc1ccc2c(c1)nnn1c3ncccc3c(N=O)c21", "GI50": "6.28 µM and 11.8 µM", "TGI": "16.2 µM and 34.2 µM"}
    ]},
    {"system": "SNB-75 CNS", "assay": "DTP human tumour cell line panel, 48 h", "units": {"GI50": "µM", "TGI": "µM"}, "values": [
      {"smiles": "CCC1CN2C(=N1)c1ccccc1-c1cc(Cl)ccc12", "note": "(stereo unspecified)", "GI50": 3.73, "TGI": 16},
      {"smiles": "CC1(N)CCN(c2cccnc2NC(=O)c2nc(-c3ncccc3C(F)(F)F)cnc2N)CC1", "GI50": 18.9, "TGI": "> 100"},
      {"smiles": "CC[C@]1(Cc2ccc(OC)c(OC)c2)C=[N+]([O-])O[C@H](OC2CCCC2(c2ccccc2)c2ccccc2)[C@@H]1OC(C)=O", "note": "(stereo partly specified)", "TGI": 9.62}
    ]},
    {"system": "SR leukemia", "assay": "DTP human tumour cell line panel, 48 h", "units": {"TGI": "µM"}, "values": [
      {"smiles": "CCC1CN2C(=N1)c1ccccc1-c1cc(Cl)ccc12", "note": "(stereo unspecified)", "GI50": "1.51 µM", "TGI": 4.53},
      {"smiles": "CC1(N)CCN(c2cccnc2NC(=O)c2nc(-c3ncccc3C(F)(F)F)cnc2N)CC1", "GI50": "3.3 µM", "TGI": 35.5},
      {"smiles": "CC[C@]1(Cc2ccc(OC)c(OC)c2)C=[N+]([O-])O[C@H](OC2CCCC2(c2ccccc2)c2ccccc2)[C@@H]1OC(C)=O", "note": "(stereo partly specified)", "TGI": "> 100"},
      {"smiles": "COc1ccc2c(c1)nnn1c3ncccc3c(N=O)c21", "GI50": "0.00899 µM and 0.0247 µM"}
    ]},
    {"system": "SW-620 colon", "assay": "DTP human tumour cell line panel, 48 h", "units": {"TGI": "µM"}, "values": [
      {"smiles": "CCC1CN2C(=N1)c1ccccc1-c1cc(Cl)ccc12", "note": "(stereo unspecified)", "GI50": "2.72 µM", "TGI": 15.5},
      {"smiles": "CC1(N)CCN(c2cccnc2NC(=O)c2nc(-c3ncccc3C(F)(F)F)cnc2N)CC1", "GI50": "28.4 µM", "TGI": "> 100"},
      {"smiles": "CC[C@]1(Cc2ccc(OC)c(OC)c2)C=[N+]([O-])O[C@H](OC2CCCC2(c2ccccc2)c2ccccc2)[C@@H]1OC(C)=O", "note": "(stereo partly specified)", "TGI": "> 100"},
      {"smiles": "COc1ccc2c(c1)nnn1c3ncccc3c(N=O)c21", "GI50": "0.27 µM and 1.34 µM"}
    ]},
    {"system": "T-47D breast", "assay": "DTP human tumour cell line panel, 48 h", "values": [
      {"smiles": "CCC1CN2C(=N1)c1ccccc1-c1cc(Cl)ccc12", "note": "(stereo unspecified)", "GI50": "3.52 µM", "TGI": "23 µM"},
      {"smiles": "CC1(N)CCN(c2cccnc2NC(=O)c2nc(-c3ncccc3C(F)(F)F)cnc2N)CC1", "GI50": "17.5 µM", "TGI": "48.3 µM"},
      {"smiles": "CC[C@]1(Cc2ccc(OC)c(OC)c2)C=[N+]([O-])O[C@H](OC2CCCC2(c2ccccc2)c2ccccc2)[C@@H]1OC(C)=O", "note": "(stereo partly specified)", "TGI": "12.4 µM"},
      {"smiles": "COc1ccc2c(c1)nnn1c3ncccc3c(N=O)c21", "GI50": "0.162 µM and 0.515 µM", "TGI": "2.36 µM and 7.9 µM"}
    ]},
    {"system": "TK-10 renal", "assay": "DTP human tumour cell line panel, 48 h", "units": {"GI50": "µM", "TGI": "µM"}, "values": [
      {"smiles": "CCC1CN2C(=N1)c1ccccc1-c1cc(Cl)ccc12", "note": "(stereo unspecified)", "GI50": 4.79, "TGI": 32.8},
      {"smiles": "CC1(N)CCN(c2cccnc2NC(=O)c2nc(-c3ncccc3C(F)(F)F)cnc2N)CC1", "GI50": 4.35, "TGI": "> 100"},
      {"smiles": "CC[C@]1(Cc2ccc(OC)c(OC)c2)C=[N+]([O-])O[C@H](OC2CCCC2(c2ccccc2)c2ccccc2)[C@@H]1OC(C)=O", "note": "(stereo partly specified)", "TGI": 10.8},
      {"smiles": "COc1ccc2c(c1)nnn1c3ncccc3c(N=O)c21", "GI50": 5.08, "TGI": 19.2}
    ]},
    {"system": "U251 CNS", "assay": "DTP human tumour cell line panel, 48 h", "values": [
      {"smiles": "CCC1CN2C(=N1)c1ccccc1-c1cc(Cl)ccc12", "note": "(stereo unspecified)", "GI50": "3.18 µM", "TGI": "11.6 µM"},
      {"smiles": "CC1(N)CCN(c2cccnc2NC(=O)c2nc(-c3ncccc3C(F)(F)F)cnc2N)CC1", "GI50": "21.8 µM", "TGI": "> 100 µM"},
      {"smiles": "CC[C@]1(Cc2ccc(OC)c(OC)c2)C=[N+]([O-])O[C@H](OC2CCCC2(c2ccccc2)c2ccccc2)[C@@H]1OC(C)=O", "note": "(stereo partly specified)", "TGI": "> 62 µM"},
      {"smiles": "COc1ccc2c(c1)nnn1c3ncccc3c(N=O)c21", "GI50": "0.72 µM and 1.18 µM", "TGI": "31.3 µM and 12.9 µM"}
    ]},
    {"system": "UACC-257 melanoma", "assay": "DTP human tumour cell line panel, 48 h", "values": [
      {"smiles": "CCC1CN2C(=N1)c1ccccc1-c1cc(Cl)ccc12", "note": "(stereo unspecified)", "GI50": "2.96 µM", "TGI": "10.3 µM"},
      {"smiles": "CC1(N)CCN(c2cccnc2NC(=O)c2nc(-c3ncccc3C(F)(F)F)cnc2N)CC1", "GI50": "18.1 µM", "TGI": "34.1 µM"},
      {"smiles": "CC[C@]1(Cc2ccc(OC)c(OC)c2)C=[N+]([O-])O[C@H](OC2CCCC2(c2ccccc2)c2ccccc2)[C@@H]1OC(C)=O", "note": "(stereo partly specified)", "TGI": "19.2 µM"},
      {"smiles": "COc1ccc2c(c1)nnn1c3ncccc3c(N=O)c21", "GI50": "8.21 µM and 2.62 µM", "TGI": "30.8 µM and 13.6 µM"}
    ]},
    {"system": "UACC-62 melanoma", "assay": "DTP human tumour cell line panel, 48 h", "values": [
      {"smiles": "CCC1CN2C(=N1)c1ccccc1-c1cc(Cl)ccc12", "note": "(stereo unspecified)", "GI50": "1.76 µM", "TGI": "5.17 µM"},
      {"smiles": "CC1(N)CCN(c2cccnc2NC(=O)c2nc(-c3ncccc3C(F)(F)F)cnc2N)CC1", "GI50": "61.2 µM", "TGI": "> 100 µM"},
      {"smiles": "CC[C@]1(Cc2ccc(OC)c(OC)c2)C=[N+]([O-])O[C@H](OC2CCCC2(c2ccccc2)c2ccccc2)[C@@H]1OC(C)=O", "note": "(stereo partly specified)", "TGI": "12.7 µM"},
      {"smiles": "COc1ccc2c(c1)nnn1c3ncccc3c(N=O)c21", "GI50": "0.853 µM and 2.56 µM", "TGI": "7.81 µM and 13.9 µM"}
    ]},
    {"system": "UO-31 renal", "assay": "DTP human tumour cell line panel, 48 h", "values": [
      {"smiles": "CCC1CN2C(=N1)c1ccccc1-c1cc(Cl)ccc12", "note": "(stereo unspecified)", "GI50": "2.39 µM", "TGI": "15.1 µM"},
      {"smiles": "CC1(N)CCN(c2cccnc2NC(=O)c2nc(-c3ncccc3C(F)(F)F)cnc2N)CC1", "GI50": "16.6 µM", "TGI": "> 100 µM"},
      {"smiles": "CC[C@]1(Cc2ccc(OC)c(OC)c2)C=[N+]([O-])O[C@H](OC2CCCC2(c2ccccc2)c2ccccc2)[C@@H]1OC(C)=O", "note": "(stereo partly specified)", "TGI": "12.6 µM"},
      {"smiles": "COc1ccc2c(c1)nnn1c3ncccc3c(N=O)c21", "GI50": "0.0757 µM and 0.347 µM", "TGI": "0.732 µM and 4.64 µM"}
    ]}
  ]
}
